In ChEMBL document CHEMBL1135425, “Antitumor agents. 213. Modeling of epipodophyllotoxin derivatives using variable selection k nearest neighbor QSAR method” (J Med Chem, 2002) one finds Complex formation data, which are given here for 61 compounds.

Where “and” joins values, the source holds several entries; their conditions need not be identical. Equal values may be shown once.

The experiment deals with DNA topoisomerase II (Homo sapiens) (UniProt P11388+Q02880). The experiment is described as follows: Percentage of intracellular covalent DNA-topoisomerase II complexes formed. In kind it is cell-based.
The compound `COc1cc([C@@H]2c3cc4c(cc3[C@@H](Nc3cc(N)ccc3O)[C@H]3COC(=O)[C@H]23)OCO4)cc(OC)c1O` came in with a Complex formation of 11%.
The same measure for `COc1cc([C@@H]2c3cc4c(cc3[C@@H](Nc3ccc(N5CCOCC5)cc3)[C@H]3COC(=O)[C@H]23)OCO4)cc(OC)c1O`: 140%; for `COc1cc([C@@H]2c3cc4c(cc3C(Nc3ccc5c(c3)OCCO5)[C@H]3COC(=O)[C@H]23)OCO4)cc(O)c1O` (stereo partly specified): 119%; for `COc1cc([C@@H]2c3cc4c(cc3[C@@H](O[C@@H]3O[C@@H]5CO[C@@H](C)O[C@H]5[C@H](O)[C@H]3O)[C@H]3COC(=O)[C@H]23)OCO4)cc(OC)c1O`: 100%.
The same measure for `COc1cc([C@@H]2c3cc4c(cc3[C@@H](Nc3ccc(Br)cc3)[C@H]3COC(=O)[C@H]23)OCO4)cc(OC)c1O`: 179%.
The result for `COc1cc([C@@H]2c3cc4c(cc3[C@@H](NCCCN(C)C)[C@H]3COC(=O)[C@H]23)OCO4)cc(OC)c1O` reads 179% and 186%; that for `COc1cc([C@@H]2c3cc4c(cc3C(Nc3ccc(CC#N)cc3)[C@H]3COC(=O)[C@H]23)OCO4)cc(O)c1O` (stereo partly specified), 109%; that for `COc1cc([N+](=O)[O-])ccc1N[C@@H]1c2cc3c(cc2[C@@H](c2cc(OC)c(O)c(OC)c2)[C@H]2C(=O)OC[C@@H]21)OCO3`, 83%.
For the compound `COc1cc([C@@H]2c3cc4c(cc3[C@@H](NCc3ccccc3F)[C@H]3COC(=O)[C@H]23)OCO4)cc(OC)c1O`, the Complex formation turned out to be 126%.
`COc1cc([C@@H]2c3cc4c(cc3[C@@H](NC(=O)c3ccc(N)cc3)[C@H]3COC(=O)[C@H]23)OCO4)cc(OC)c1O`: the Complex formation was determined as 120%.
The result for `COc1cc([C@@H]2c3cc(O)c(O)cc3C(Nc3ccc(C#N)cc3)[C@H]3COC(=O)[C@H]23)cc(OC)c1OC` (stereo partly specified) reads 33%; that for `COc1cc([C@@H]2c3cc4c(cc3[C@@H](NCc3cccc([N+](=O)[O-])c3)[C@H]3COC(=O)[C@H]23)OCO4)cc(OC)c1O`, 130%.
For the compound `COc1cc(N[C@@H]2c3cc4c(cc3[C@@H](c3cc(OC)c(O)c(OC)c3)[C@H]3C(=O)OC[C@@H]32)OCO4)c(C)cc1[N+](=O)[O-]`, the Complex formation turned out to be 3.5%.
The same measure for `COc1cc([C@@H]2c3cc4c(cc3[C@@H](Nc3ccc5c(c3)OCO5)[C@H]3COC(=O)[C@H]23)OCO4)cc(OC)c1O`: 164%; for `COc1cc([C@@H]2c3cc4c(cc3[C@@H](NC(=O)c3ccc(C#N)cc3)[C@H]3COC(=O)[C@H]23)OCO4)cc(OC)c1O`: 159%; for `COC1=CC([C@@H]2c3cc4c(cc3C(NC(N=O)C(C)C)[C@H]3COC(=O)[C@H]23)OCO4)=CC(=O)C1(O)CC(C)=O` (stereo partly specified): 1%.
The result for `COc1cc([C@@H]2c3cc4c(cc3[C@@H](O[C@@H]3O[C@@H]5CO[C@@H](C)O[C@H]5[C@H](O)[C@H]3O)[C@H]3COC(=O)[C@H]23)OCO4)c(Cl)c(OC)c1O` reads 6.1%; that for `COc1cc([C@@H]2c3cc4c(cc3[C@@H](NC(=O)c3ccccc3F)[C@H]3COC(=O)[C@H]23)OCO4)cc(OC)c1O`, 128%; that for `COc1cc([C@@H]2c3cc4c(cc3[C@@H](Nc3cccc(F)c3)[C@H]3COC(=O)[C@H]23)OCO4)cc(OC)c1O`, 158%.
The result for `COc1cc([C@@H]2c3cc4c(cc3[C@@H](Nc3cc(F)cc(F)c3)[C@H]3COC(=O)[C@H]23)OCO4)cc(OC)c1O` reads 115%.
`COc1ccc(NC2c3cc4c(cc3[C@@H](c3cc(O)c(O)c(OC)c3)[C@H]3C(=O)OC[C@H]23)OCO4)cc1` (stereo partly specified) had a Complex formation of 96%.
The result for `COc1cc2c(cc1OC)[C@@H](c1cc(OC)c(OC)c(OC)c1)[C@H]1C(=O)OC[C@@H]1C2Nc1ccc(F)cc1` (stereo partly specified) reads 8%; that for `COc1cc([C@@H]2c3cc4c(cc3[C@@H](NC[C@H](C)O)[C@H]3COC(=O)[C@H]23)OCO4)cc(OC)c1O`, 167%.
The result for `COc1cc([C@@H]2c3cc(O)c(O)cc3C(Nc3ccc(F)cc3)[C@H]3COC(=O)[C@H]23)cc(OC)c1OC` (stereo partly specified) reads 11%.
The same measure for `COc1cc([C@@H]2c3cc4c(cc3[C@@H](O)[C@H]3COC(=O)[C@H]23)OCO4)c(Cl)c(OC)c1O`: 15.6%; for `COc1cc([C@@H]2c3cc4c(cc3[C@@H](OC(=O)c3ccc(N)cc3)[C@H]3COC(=O)[C@H]23)OCO4)cc(OC)c1O`: 94%; for `COc1cc([C@@H]2c3cc4c(cc3[C@@H](Nc3ccc5c(c3)OCCO5)[C@H]3COC(=O)[C@H]23)OCO4)cc(OC)c1O`: 279%.
In turn, `COC(=O)c1cccc(N[C@@H]2c3cc4c(cc3[C@@H](c3cc(OC)c(O)c(OC)c3)[C@H]3C(=O)OC[C@@H]32)OCO4)c1` returned a Complex formation of 249%.
The result for `COc1cc([C@@H]2c3cc4c(cc3[C@@H](Nc3cccc(Cl)c3)[C@H]3COC(=O)[C@H]23)OCO4)cc(OC)c1O` reads 51%.
Take `COc1cc([C@@H]2c3cc(O)c(O)cc3[C@@H](Nc3ccccc3)[C@H]3COC(=O)[C@H]23)cc(OC)c1OC`: the Complex formation stood at 9%.
On to `COc1cc([C@@H]2c3cc4c(cc3C(Nc3cccc([N+](=O)[O-])c3)[C@H]3COC(=O)[C@H]23)OCO4)cc(O)c1O` (stereo partly specified), for which the Complex formation was found to be 75%.
The same measure for `COc1cc([C@@H]2c3cc4c(cc3[C@@H](NCc3cccc(F)c3)[C@H]3COC(=O)[C@H]23)OCO4)cc(OC)c1O`: 216%; for `COc1cc([C@@H]2c3cc(O)c(O)cc3[C@@H](Nc3cccc(O)c3)[C@H]3COC(=O)[C@H]23)cc(OC)c1OC`: 4%.
The same measure for `COc1cc([C@@H]2c3cc4c(cc3[C@@H](Nc3ccccc3F)[C@H]3COC(=O)[C@H]23)OCO4)cc(OC)c1O`: 121%; for `C=CCN[C@@H]1c2cc3c(cc2[C@@H](c2cc(OC)c(O)c(OC)c2)[C@H]2C(=O)OC[C@@H]21)OCO3`: 84.1%.
The result for `COc1cc([C@@H]2c3cc4c(cc3[C@@H](Nc3cccc([N+](=O)[O-])c3)[C@H]3COC(=O)[C@H]23)OCO4)cc(OC)c1O` reads 230%; that for `COc1cc([C@@H]2c3cc4c(cc3[C@@H](NC(=O)c3ccccc3O)[C@H]3COC(=O)[C@H]23)OCO4)cc(OC)c1O`, 160%.
For `COc1cc([C@@H]2c3cc4c(cc3[C@@H](Nc3ccccc3Cl)[C@H]3COC(=O)[C@H]23)OCO4)cc(OC)c1O`, the Complex formation came to 32%.
The result for `COC1=CC([C@@H]2c3cc4c(cc3C(NC(=O)N(CCCl)N=O)[C@H]3COC(=O)[C@H]23)OCO4)=CC(=O)C1=O` (stereo partly specified) reads 7%; that for `COc1cc([C@@H]2c3cc4c(cc3[C@@H](Nc3nc5ccccc5[nH]3)[C@H]3COC(=O)[C@H]23)OCO4)cc(OC)c1O`, 58%.
The result for `COC(=O)c1cccc(NC2c3cc4c(cc3[C@@H](c3cc(O)c(O)c(OC)c3)[C@H]3C(=O)OC[C@H]23)OCO4)c1` (stereo partly specified) reads 94%; that for `COc1cc([C@@H]2c3cc4c(cc3[C@@H](NC(=O)c3ccccc3)[C@H]3COC(=O)[C@H]23)OCO4)cc(OC)c1O`, 177%; that for `COc1cc([C@@H]2c3cc4c(cc3[C@@H](Nc3cccc(CO)c3)[C@H]3COC(=O)[C@H]23)OCO4)cc(OC)c1O`, 235%.
The same measure for `COc1cc([C@@H]2c3cc4c(cc3[C@@H](N)[C@H]3COC(=O)[C@H]23)OCO4)cc(OC)c1O`: 36.4%; for `COc1cc([C@@H]2c3cc4c(cc3[C@@H](Nc3ccc(I)cc3)[C@H]3COC(=O)[C@H]23)OCO4)cc(OC)c1O`: 64%; for `COc1cc([C@@H]2c3cc4c(cc3[C@@H](Nc3ccccn3)[C@H]3COC(=O)[C@H]23)OCO4)cc(OC)c1O`: 97%.
`COc1cc([C@@H]2c3cc4c(cc3[C@@H](NCc3ccc(C#N)cc3)[C@H]3COC(=O)[C@H]23)OCO4)cc(OC)c1O` had a Complex formation of 284%.
The same measure for `COc1cc([C@@H]2c3cc4c(cc3[C@@H](Nc3ccc(-c5nc6ccccc6[nH]5)cc3)[C@H]3COC(=O)[C@H]23)OCO4)cc(OC)c1O`: 128%.
The result for `COc1cc([C@@H]2c3cc4c(cc3[C@@H](O)[C@H]3COC(=O)[C@H]23)OCO4)cc(OC)c1O` reads 42.2%; that for `COc1cc([C@@H]2c3cc4c(cc3[C@@H](NCc3ccc(F)cc3)[C@H]3COC(=O)[C@H]23)OCO4)cc(OC)c1O`, 169%; that for `COc1cc([C@@H]2c3cc4c(cc3[C@@H](NCc3ccc([N+](=O)[O-])cc3)[C@H]3COC(=O)[C@H]23)OCO4)cc(OC)c1O`, 216%.
The result for `COc1cc([C@@H]2c3cc(O)c(O)cc3[C@@H](Nc3ccc([N+](=O)[O-])cc3)[C@H]3COC(=O)[C@H]23)cc(OC)c1O` reads 99%.
`COC(=O)c1cc(N[C@@H]2c3cc4c(cc3[C@@H](c3cc(OC)c(O)c(OC)c3)[C@H]3C(=O)OC[C@@H]32)OCO4)cc(C(=O)OC)c1` registered a Complex formation of 50%.
The same measure for `COc1cc([C@@H]2c3cc4c(cc3[C@@H](Nc3ccc(Cl)cc3)[C@H]3COC(=O)[C@H]23)OCO4)cc(OC)c1O`: 99%; for `COC(=O)c1ccc(N[C@@H]2c3cc4c(cc3[C@@H](c3cc(OC)c(O)c(OC)c3)[C@H]3C(=O)OC[C@@H]32)OCO4)cc1`: 207%.
The result for `COc1cc(CN[C@@H]2c3cc4c(cc3[C@@H](c3cc(OC)c(O)c(OC)c3)[C@H]3C(=O)OC[C@@H]32)OCO4)cc(OC)c1` reads 144%; that for `COc1cc([C@@H]2c3cc4c(cc3[C@@H](Nc3ccc([N+](=O)[O-])cc3)[C@H]3COC(=O)[C@H]23)OCO4)cc(OC)c1O`, 323%; that for `COc1cc([C@@H]2c3cc4c(cc3[C@@H](Nc3ccc(C(=O)O)cc3)[C@H]3COC(=O)[C@H]23)OCO4)cc(OC)c1O`, 6.9%.
For `COc1cc([C@@H]2c3cc4c(cc3[C@@H](Nc3cccnc3)[C@H]3COC(=O)[C@H]23)OCO4)cc(OC)c1O`, the Complex formation came to 148%.
The same measure for `COc1ccc(N[C@@H]2c3cc4c(cc3[C@@H](c3cc(OC)c(O)c(OC)c3)[C@H]3C(=O)OC[C@@H]32)OCO4)c([N+](=O)[O-])c1`: 15%; for `COc1cc([C@@H]2c3cc4c(cc3[C@@H](Nc3ccccc3O)[C@H]3COC(=O)[C@H]23)OCO4)cc(OC)c1O`: 151%.
